Measured values published in patent US20090215857A1 (Pfizer Products Inc., priority 2005, published 2009).
Counter-ions that a name gives are not always drawn.

How the values were obtained:
[1] = target: T1, human norepinephrine transporter (Homo sapiens, UniProt P23975); experiment: hNET receptor binding ([125I]-RTI-55 radioligand); conditions: membranes of HEK-293 cells transfected with human norepinephrine transporter cDNA; 50 pM [125I]-RTI-55; IC50 converted by Cheng-Prusoff; read-out: NET Ki
T1 construct: expressed in transfected cells; host or cells: HEK-293
Summary of the method: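 Membranes from HEK-293 cells expressing human NET were incubated 90 min at room temperature with 50 pM [125I]-RTI-55 and test compound (10^−5M to 10^−12M) in Krebs-HEPES, pH 7.4.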

[2] = target: T2, human serotonin transporter (Homo sapiens, UniProt P31645); experiment: hSERT receptor binding ([125I]-RTI-55 radioligand); conditions: membranes of HEK-293 cells transfected with human serotonin transporter cDNA; 50 pM [125I]-RTI-55; IC50 converted by Cheng-Prusoff; read-out: SERT Ki
T2 construct: expressed in transfected cells; host or cells: HEK-293
Summary of the method: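 HEK-293 membranes expressing transfected human transporter were incubated with 50 pM [125I]-RTI-55 and test compound (10^−5 to 10^−12 M) in Krebs-HEPES pH 7.4 for 90 min at RT.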

[3] = tested on: capsaicin-induced mechanical allodynia; experiment: rat model of capsaicin-induced mechanical allodynia; format: in vivo; conditions: male Sprague-Dawley rats; 10 mg/kg subcutaneously; PWT 1 hour after single dose; mean of eight animals, normalized for vehicle
Protocol: Compounds of the present invention may be assayed for their ability to alleviate capsaicin-induced mechanical allodynia in a rat (e.g., Sluka (2002) J of Neuroscience, 22(13): 5687-5693). For example, a rat model of capsaicin-induced mechanical allodynia was carried out as follows:
On day 0, male Sprague-Dawley rats (˜150 g) in the dark cycle were placed in suspended wire-bottom cages and allowed to acclimate for 0.5 hour in a darkened, quiet room. The day 0 paw withdrawal threshold (PWT) was determined on the left hind paw by Von Frey hair assessment using the Dixon up and down method. After assessment, the plantar muscle of the right hind paw was injected with 100 μl capsaicin (0.25% (w/v) in 10% ethanol, 10% Tween 80, in sterile saline). On day 6 the PWT of the left hind paw (contralateral from injection site) was determined for each animal. Animals from the day 6 prereads with PWT ≦11.7 g were considered allodynic responders and were regrouped so that each cage had similar mean PWT values. On day 7, responders were dosed subcutaneously with 10 mg compound/kg body weight, or with vehicle alone. The vehicle was phosphate buffered saline containing 2% Cremophor® EL (BASF). The contralateral PWT values were determined at 1 hour after the single dose, with the investigator blinded to the dosing scheme.
For each animal, the day 6 PWT value was subtracted from the 1 hour PWT value to give a delta PWT value that represents the change in PWT due to the 1 hour drug treatment. In addition, the day 6 PWT was subtracted from the day 0 PWT to give the baseline window of allodynia present in each animal.
The mean percent Inhibition of allodynia values (for eight animals assayed for each compound)+/−the standard error of the mean (SEM) are shown in Table 15.

[4] = target: T3, neuronal α-BGTX-insensitive central nicotinic receptor (Rattus norvegicus, UniProt P09483+P12390); experiment: [3H]cytisine radioligand binding assay, rat cerebral cortex; conditions: 10 μM compound; 1.5 nM [3H]cytisine; rat cerebral cortex membrane homogenates; read-out: Percent inhibition at 10 μM of compound (control radioligand specific binding)
T3 construct: Membrane homogenates of cerebral cortex (800 μg protein) are incubated; from tissue; host or cells: rat cerebral cortex membrane homogenates
Protocol: Several compounds were evaluated for their affinity for the neuronal α-BGTX-insensitive central nicotinic receptor in the rat cerebral cortex determined in a radioligand binding assay.
Experimental protocol Membrane homogenates of cerebral cortex (800 μg protein) are incubated for 75 min at 4° C. with 1.5 nM [^3H]cytisine in the absence or presence of the test compound (10 μM in a buffer containing 50 mM Tris-HCl (pH 7.4), 120 mM NaCl, 5 mM KCl, 1 mM MgCl2 and 2 mM CaCl2.
Nonspecific binding is determined in the presence of 10 μM nicotine.
Following incubation, the samples are filtered rapidly under vacuum through glass fiber filters (Filtermat B, Wallac) presoaked with 0.3% PEI (polyethyleneimine) and rinsed several times with ice-cold 50 mM Tris-HCl using a 48-sample cell harvester (Mach II, Tomtec). The filters are dried then counted for radioactivity in a scintillation counter (Betaplate 1204, Wallac) using a solid scintillator (Meltilex B/HS, Wallac).
The results are expressed as a percent inhibition of the control radioligand specific binding.
The standard reference compound is nicotine, which is tested in each experiment at several concentrations to obtain a competition curve from which its IC50 is calculated.

T2 sequence (P31645 whole entry): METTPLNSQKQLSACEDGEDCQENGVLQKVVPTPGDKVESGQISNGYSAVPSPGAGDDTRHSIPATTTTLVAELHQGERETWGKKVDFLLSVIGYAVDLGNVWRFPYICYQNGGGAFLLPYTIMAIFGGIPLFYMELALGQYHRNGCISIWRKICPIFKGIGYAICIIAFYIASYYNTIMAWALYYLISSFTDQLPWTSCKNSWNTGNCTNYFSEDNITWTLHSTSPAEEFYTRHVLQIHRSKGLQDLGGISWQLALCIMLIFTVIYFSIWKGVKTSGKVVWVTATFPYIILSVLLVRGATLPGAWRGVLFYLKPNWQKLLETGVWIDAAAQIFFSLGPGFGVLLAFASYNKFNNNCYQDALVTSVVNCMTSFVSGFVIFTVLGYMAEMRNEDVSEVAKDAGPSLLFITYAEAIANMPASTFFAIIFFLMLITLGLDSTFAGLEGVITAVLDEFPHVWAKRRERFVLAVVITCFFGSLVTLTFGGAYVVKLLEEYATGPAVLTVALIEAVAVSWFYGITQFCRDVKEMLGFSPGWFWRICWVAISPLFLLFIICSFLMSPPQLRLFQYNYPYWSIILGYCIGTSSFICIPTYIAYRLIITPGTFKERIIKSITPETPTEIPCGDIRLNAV
T1 sequence (P23975 whole entry): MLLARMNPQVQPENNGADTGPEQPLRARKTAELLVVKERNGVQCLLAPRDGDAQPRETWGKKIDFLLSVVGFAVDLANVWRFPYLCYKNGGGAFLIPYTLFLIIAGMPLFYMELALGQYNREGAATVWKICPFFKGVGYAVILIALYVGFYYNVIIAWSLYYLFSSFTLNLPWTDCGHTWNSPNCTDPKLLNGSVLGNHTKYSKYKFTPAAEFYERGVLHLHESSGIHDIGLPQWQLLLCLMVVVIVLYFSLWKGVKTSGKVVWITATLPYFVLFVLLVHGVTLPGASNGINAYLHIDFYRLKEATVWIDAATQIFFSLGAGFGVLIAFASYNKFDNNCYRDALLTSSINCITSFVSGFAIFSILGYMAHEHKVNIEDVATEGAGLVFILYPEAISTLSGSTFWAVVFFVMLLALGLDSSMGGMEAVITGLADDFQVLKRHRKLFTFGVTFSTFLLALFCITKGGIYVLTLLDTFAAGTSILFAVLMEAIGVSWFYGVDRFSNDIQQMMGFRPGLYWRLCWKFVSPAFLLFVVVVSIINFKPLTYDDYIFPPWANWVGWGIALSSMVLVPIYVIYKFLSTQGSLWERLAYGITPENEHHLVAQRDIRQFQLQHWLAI
T3 sequence (P09483 31-630): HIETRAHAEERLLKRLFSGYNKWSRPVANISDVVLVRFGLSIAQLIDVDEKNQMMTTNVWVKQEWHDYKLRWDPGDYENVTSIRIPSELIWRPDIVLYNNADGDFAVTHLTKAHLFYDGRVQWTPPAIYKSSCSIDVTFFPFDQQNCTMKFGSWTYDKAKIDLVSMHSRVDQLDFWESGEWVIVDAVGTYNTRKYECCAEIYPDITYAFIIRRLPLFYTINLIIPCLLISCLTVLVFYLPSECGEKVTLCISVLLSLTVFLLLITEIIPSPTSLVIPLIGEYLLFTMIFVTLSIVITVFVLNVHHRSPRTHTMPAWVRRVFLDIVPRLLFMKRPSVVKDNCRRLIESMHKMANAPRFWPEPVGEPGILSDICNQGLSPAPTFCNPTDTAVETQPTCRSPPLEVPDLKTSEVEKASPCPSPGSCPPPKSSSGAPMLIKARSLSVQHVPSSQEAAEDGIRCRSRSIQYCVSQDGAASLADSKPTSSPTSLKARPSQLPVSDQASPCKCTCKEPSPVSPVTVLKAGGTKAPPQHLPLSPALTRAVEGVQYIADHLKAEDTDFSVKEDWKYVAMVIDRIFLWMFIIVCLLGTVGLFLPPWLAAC
T3 sequence (P12390 25-500): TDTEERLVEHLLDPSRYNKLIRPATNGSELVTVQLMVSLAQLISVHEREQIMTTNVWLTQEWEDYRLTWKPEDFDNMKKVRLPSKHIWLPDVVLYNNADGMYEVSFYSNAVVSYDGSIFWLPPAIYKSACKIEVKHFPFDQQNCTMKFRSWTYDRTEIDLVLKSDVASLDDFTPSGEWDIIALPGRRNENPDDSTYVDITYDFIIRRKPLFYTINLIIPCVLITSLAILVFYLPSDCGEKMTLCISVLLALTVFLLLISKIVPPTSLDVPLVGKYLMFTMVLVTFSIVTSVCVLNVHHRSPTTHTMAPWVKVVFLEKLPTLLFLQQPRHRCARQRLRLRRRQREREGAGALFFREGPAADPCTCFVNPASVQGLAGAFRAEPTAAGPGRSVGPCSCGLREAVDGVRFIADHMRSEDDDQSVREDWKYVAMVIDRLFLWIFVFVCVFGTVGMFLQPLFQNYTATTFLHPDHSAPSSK

Ki [1]	Ki [2]	Structure (SMILES)	% INHIBITION +/− SEM (inhibition of allodynia) [3]	inhibition at 10 µM [4]
11.2 nM	139 nM	Cl.Fc1ccc(-c2cccc(F)c2F)c(CO[C@H]2CCNC2)c1 [Example A-4, (S)-3-(4,2′,3′-Trifluoro-biphenyl-2-ylmethoxy)-pyrrolidine hydrochloride]	30.20 +/− 1.8%	
10.9 nM	103 nM	Fc1ccc(-c2ccccc2CO[C@H]2CCNC2)c(F)c1 [Example A-1, (S)-3-(2′,4′-Difluoro-biphenyl-2-ylmethoxy)-pyrrolidine fumarate]	40.90 +/− 10.2%	
10.8 nM	134 nM	Fc1ccc(-c2ccc(F)cc2CO[C@H]2CCNC2)c(F)c1.O=C(O)/C=C/C(=O)O [Example A-3, (S)-3-(4,2′,4′-Trifluoro-biphenyl-2-ylmethoxy)-pyrrolidine fumarate]	17.40 +/− 9.9%	
12.9 nM	65.6 nM	Fc1cccc(-c2ccccc2CO[C@H]2CCNC2)c1F.O=C(O)/C=C/C(=O)O [Example A-6, (S)-3-(2′,3′-Difluoro-biphenyl-2-ylmethoxy)-pyrrolidine fumarate]	66.20 +/− 7.8%	
585 nM	59.6 nM	Cc1cccc(-c2ccccc2CO[C@H]2CCNC2)c1C [Example D-35, (S)-3-(2′,3′-Dimethyl-biphenyl-2-ylmethoxy)-pyrrolidine]		
4180 nM	≥ 10000 nM	c1ccc(COc2ccccc2-c2ccccc2CO[C@H]2CCNC2)cc1 [Example D-48, (S)-3-(2′-Benzyloxy-biphenyl-2-ylmethoxy)-pyrrolidine]		
295 nM	91.9 nM	Cc1cc(C)cc(-c2ccccc2CO[C@H]2CCNC2)c1 [Example D-27, (S)-3-(3′,5′-Dimethyl-biphenyl-2-ylmethoxy)-pyrrolidine]		
145 nM	60 nM	COc1cccc(-c2ccc(F)cc2CO[C@H]2CCNC2)c1 [Example D-114, (S)-3-(4-Fluoro-3′-methoxy-biphenyl-2-ylmethoxy)-pyrrolidine]		
571 nM	4230 nM	CCOc1ncccc1-c1ccccc1CO[C@H]1CCNC1 [Example D-120, (S)-2-Ethoxy-3-[2-(pyrrolidin-3-yloxymethyl)-phenyl]-pyridine]		
331 nM	122 nM	Fc1ccc(-c2cccc(OC(F)(F)F)c2)c(CO[C@H]2CCNC2)c1 [Example D-95, (S)-3-(4-Fluoro-3′-trifluoromethoxy-biphenyl-2-ylmethoxy)-pyrrolidine]		
650 nM	1090 nM	Oc1ccccc1-c1ccc(F)cc1CO[C@H]1CCNC1 [Example D-103, (S)-4′-Fluoro-2′-(pyrrolidin-3-yloxymethyl)-biphenyl-2-ol]		
≥ 10000 nM	5630 nM	Nc1ncccc1-c1ccccc1CO[C@H]1CCNC1 [Example D-121, (S)-3-[2-(Pyrrolidin-3-yloxymethyl)-phenyl]-pyridin-2-ylamine]		
108 nM	24.8 nM	CSc1cccc(-c2ccccc2CO[C@H]2CCNC2)c1 [Example D-20, (S)-3-(3′-Methylsulfanyl-biphenyl-2-ylmethoxy)-pyrrolidine]		
6870 nM	444 nM	CC(=O)c1ccc(-c2ccc(F)cc2CO[C@H]2CCNC2)cc1 [Example D-78, (S)-1-[4′-Fluoro-2′-(pyrrolidin-3-yloxymethyl)-biphenyl-4-yl]-ethanone]		
13.5 nM	34.5 nM	c1ccc(-c2ccccc2CO[C@H]2CCNC2)cc1 [Example A-7, (S)-3-(Biphenyl-2-ylmethoxy)-pyrrolidine hydrochloride]		
1280 nM	734 nM	CCc1ccc(-c2ccc(F)cc2CO[C@H]2CCNC2)cc1 [Example D-76, (S)-3-(4′-Ethyl-4-fluoro-biphenyl-2-ylmethoxy)-pyrrolidine]		
23.9 nM	758 nM	Fc1ccccc1-c1c(F)cccc1CO[C@H]1CCNC1 [Example A-32, (3S)-3-[(2′,6-difluorobiphenyl-2-yl)methoxy]pyrrolidine hydrochloride]		
65.9 nM	126 nM	Fc1ccc(-c2ccccc2)c(CO[C@H]2CCNC2)c1 [Example D-66, (S)-3-(4-Fluoro-biphenyl-2-ylmethoxy)-pyrrolidine]		
8.42 nM	261 nM	COc1ccc(-c2ccccc2CO[C@H]2CCNC2)cc1C [Example D-2, (S)-3-(4′-Methoxy-3′-methyl-biphenyl-2-ylmethoxy)-pyrrolidine]		
404 nM	486 nM	COc1ccc(-c2ccc(F)cc2CO[C@H]2CCNC2)cc1F [Example D-100, (S)-3-(4,3′-Difluoro-4′-methoxy-biphenyl-2-ylmethoxy)-pyrrolidine]		
4450 nM	709 nM	c1ccc(-c2ccc3c(c2)OCCCO3)c(CO[C@H]2CCNC2)c1 [Example D-50, (S)-3-[2-(3,4-Dihydro-2H-benzo[b][1,4]dioxepin-7-yl)-benzyloxy]-pyrrolidine]		
1290 nM	656 nM	COc1ccc(F)cc1-c1ccc(F)cc1CO[C@H]1CCNC1 [Example D-64, (S)-3-(4,5′-Difluoro-2′-methoxy-biphenyl-2-ylmethoxy)-pyrroldine]		
≥ 10000 nM	≥ 10000 nM	COc1ccc(-c2ccccc2CO[C@H]2CCNC2)c(OC)c1 [Example D-54, (S)-3-(2′,4′-Dimethoxy-biphenyl-2-ylmethoxy)-pyrrolidine]		
2910 nM	2470 nM	COc1ccc(-c2ccccc2CO[C@H]2CCNC2)cn1 [Example A-29, (S)-2-Methoxy-5-[2-(pyrrolidin-3-yloxymethyl)-phenyl]-pyridine fumarate]		
3880 nM	3760 nM	c1ccc(-c2ccc3c(c2)OCCO3)c(CO[C@H]2CCNC2)c1 [Example D-46]		
6780 nM	206 nM	Fc1ccc(-c2ccc(C(F)(F)F)cc2)c(CO[C@H]2CCNC2)c1 [Example D-79, (S)-3-(4-Fluoro-4′-trifluoromethyl-biphenyl-2-ylmethoxy)-pyrrolidine]		
18.5 nM	18.4 nM	Fc1cccc(-c2ccccc2CO[C@H]2CCNC2)c1 [Example D-6, (S)-3-(3′-Fluoro-biphenyl-2-ylmethoxy)-pyrrolidine]		

Structure (SMILES)	Ki [1]	Ki [2]	% INHIBITION +/− SEM (inhibition of allodynia) [3]	inhibition at 10 µM [4]
Fc1cc(F)cc(-c2ccccc2CO[C@H]2CCNC2)c1 [Example A-17, (S)-3-(3′,5′-Difluoro-biphenyl-2-ylmethoxy)-pyrrolidine hydrochloride]	93.5 nM	15.1 nM		≤ 21%
FC(F)(F)c1cccc(-c2ccccc2CO[C@H]2CCNC2)c1 [Example A-18, (S)-3-(3′-Trifluoromethyl-biphenyl-2-ylmethoxy)-pyrrolidine hydrochloride]	103 nM	13 nM		≤ 21%
